Data published in patent US10125104B2, “Carotenoid derivative, pharmaceutically acceptable salt thereof, or pharmaceutically acceptable ester or amide thereof” (Asta Pharmaceuticals Co., Ltd., priority 2014, dated 2018).

Columns and labels:
[1] = Test for confirmation of water solubility (distribution to water/methylene chloride); assay type: physicochemical
Experimental: Test for Confirmation of Water Solubility (Distribution to Water/Methylene Chloride)
To each of the samples (1 mg) in Table 43, water (5 mL) and methylene chloride (5 mL) were added and the mixture was shaken, which was called the group of Solution A. A 28% sodium methoxide/methanol solution (463 μL (2.33 mmol)) was dissolved in water (10 mL), and the aqueous solution (1 mL) was collected and dissolved in water (100 mL), which was called Solution B. To each of the group of Solution A, Solution B (1 mL) was added and shaken. The solution was left at room temperature, each of the aqueous layer and of the organic layer were measured by HPLC and the ratio of the compound in the aqueous layer was shown in Table 4.
HPLC conditions were as follows:
chromatograph (HITACHI LaChrom Elite D-2000), column (SHISEIDO CAPCELL PAK C18 (3 μm particle diameter, 4.6 mm×150 mm)), detection temperature (40° C.), detection wavelength (474 nm), flow rate (1.0 mL/min) and mobile phase set up (% A=0.025% TFA/water, % B=0.025% TFA/acetonitrile); 70% A/30% B (at the start), 50% B gradient until 2.5 minutes, 98% B gradient until 4.2 minutes and the ratio (98% B) maintained until 15 minutes. The ratio in the aqueous layer was calculated from the following equation. […]

[2] = system: IL-1β mRNA in RAW264.7 cells; assay: Test for anti-inflammation in a cell: IL-1β mRNA by quantitative RT-PCR after LPS; assay type: cell-based, mouse; settings: for IL-1β Gene expressivity: relative to the control, LPS 1 ng/mL, 2 hours; for suppression of IL-1β gene expression (in words): RAW264.7 cells, LPS
Experimental: Test for Anti-Inflammation in a Cell
These cells were cultured for 48 hours in 5% CO2 at 37° C. After the medium replacement, an aqueous solution of the sample was added to the medium and the cell was cultured for 24 hours. The medium was then replaced, LPS (1 ng/mL) was added thereto and the cell was cultured for 2 hours.
Then, the medium was removed and the RAW264.7 cells were washed with physiological phosphate buffer solution (PBS). This operation was performed 3 times. Then, Total RNA was extracted using RNeasy Mini Kit (QIAGEN Inc.), and the production amount of IL-1β mRNA which is an inflammatory cytokine, was measured by a quantitative RT-PCR method using PRISM 7000 (Applied Biosystem).

TNF-α = assay: Test for anti-inflammation in rats (LPS intraperitoneally): blood plasma TNF-α by ELISA; assay type: in vivo, Wistar rats; settings: for TNF-α concentration in blood plasma: 4 mg/kg LPS i.p., then sample i.p., blood after 9 hours
Experimental: (§1) Test for Anti-Inflammation in Rats
(§2) Six week-old Wistar rats (purchased from Sankyo Labo Service Corporation, 200-250 g body weight) were acclimatized for 1 week with free access to food under a 12/12-hr light-dark cycle. An aqueous solution of 4 mg/kg LPS (lipopolysaccharide, derived from Escherichia coli and manufactured by Wako Pure Chemical Industries, Ltd.) was injected intraperitoneally and then an aqueous solution of the sample was injected intraperitoneally. After 9 hours, the whole blood was collected from the ventral aorta and centrifuged for 10 minutes at 10,000 rpm, and the blood plasma was collected. The blood plasma TNF-α concentration was measured using a kit for measuring TNF-α (Rat TNF-alpha Quantikine ELISA Kit RTA00, manufactured by R&D Systems Inc.) and the blood plasma IL-1β concentration was measured using a kit for measuring IL-1β (Rat IL-1b/IL1F2 Quantikine ELISA Kit, manufactured by R&D Systems Inc.). The 3 to 4 animals per group were used. The blood plasma TNF-α concentration is shown in Table 46 and FIG. 3 and the blood plasma IL-1β concentration is shown in Table 46 and FIG. 4.

IL-1β = assay: Test for anti-inflammation in rats (LPS intraperitoneally): blood plasma IL-1β by ELISA; assay type: in vivo, Wistar rats; settings: for IL-1β concentration in blood plasma: 4 mg/kg LPS i.p., then sample i.p., blood after 9 hours
Experimental: as §1, §2

[3] = digestive absorption; cited from earlier work
[4] = Test for oral absorption: blood plasma concentration of astaxanthin after oral gavage; assay type: in vivo, Wistar rat; settings: compared to astaxanthin (free form) and the extract from Haematococcus algae
Experimental: Test for Oral Absorption in […]
Each of the compound in Example 8, astaxanthin (free form) and an extract from Haematococcus algae (AstaReal L10, manufactured by Fuji Chemical Industries Co., Ltd., oil containing 10% astaxanthin extracted from Haematococcus algae) was diluted with 33% dimethyl sulfoxide, 60% polyethylene glycol and 0.03% aqueous carboxymethyl cellulose solution and prepared to have a concentration of 5 mg/ml as a conversion to astaxanthin free form. The prepared sample was administered to a Wistar rat fasted one night (male, 9 to 13 weeks old, 250 to 300 g of body weight, 2 or 4 animals per group) by oral gavage in an amount of astaxanthin (50 mg) per 1 kg of body weight. Then, the blood was collected at the time points of 3 hours, 6 hours and 24 hours and the blood plasma was isolated. To the obtained blood plasma (0.1 ml), acetone in an amount of 6 folds and hexane in an amount of 50 folds were added, and the solution was stirred well and centrifuged to obtain a hexane layer. The hexane layer was dried under reduced pressure and dissolved in acetone (0.1 ml). The obtained acetone solution (0.05 mL) was analyzed by high performance liquid chromatography (HPLC) under the following conditions and the blood concentration was measured. […]

[5] = compared to astaxanthin and disodium disuccinate astaxanthin

SMILES | IL-1β Gene expressivity ([2]; sample concentration 5 μM) | IL-1β Gene expressivity ([2]; sample concentration 25 μM) | IL-1β Gene expressivity ([2]; sample concentration 50 μM) | TNF-α concentration in blood plasma (TNF-α) [pg/mL] | IL-1β concentration in blood plasma (IL-1β) [pg/mL] | suppression of IL-1β gene expression (in words) [2] | further results
CC(C=CC=C(C)C=CC1=C(C)C(=O)C(OC(=O)CCC(=O)O)CC1(C)C)=CC=CC=C(C)C=CC=C(C)C=CC1=C(C)C(=O)C(OC(=O)CCC(=O)O)CC1(C)C (stereo not drawn) [Astaxanthin disuccinate ester, astaxanthin disuccinic acid ester] |  |  |  |  |  |  | Ratio of aqueous layer ([1]; 1 mg sample in water 5 mL / methylene chloride 5 mL plus dilute sodium methoxide solution, HPLC peak areas, 474 nm): 43.8%
CC(C=CC=C(C)C=CC1=C(C)C(=O)C(O)CC1(C)C)=CC=CC=C(C)C=CC=C(C)C=CC1=C(C)C(=O)C(O)CC1(C)C (stereo not drawn) [Astaxanthin, 6-hydroxy-3-(18-[4-hydroxy-2,6,6-trimethyl-3-oxo-1-cyclohexenyl]-3,7,12,16-tetramethyloctadeca-1,3,5,7,9,11,13,15,17-nonaenyl)-2,4,4-trimethyl-2-cyclohexen-1-one, reference compound] | 1.00 | 0.96 | 0.77 | 112.0 ± 35.6 | 203.9 ± 165.3 |  | water solubility (in words) [1]: extremely low solubility in water; biological availability [3]: around several percent
CC1=C(/C=C/C(C)=C/C=C/C(C)=C/C=C/C=C(C)/C=C/C=C(C)/C=C/C2=C(C)C(=O)C(OC(=O)CCC(=O)O)CC2(C)C)C(C)(C)CC(OC(=O)CCC(=O)O)C1=O (stereo not drawn) [Disodium Disuccinate Astaxanthin (DDA), Disodium Disuccinate Astaxanthin, reference compound] |  |  |  | 99.6 ± 99.9 | 311.7 ± 269.1 |  | 
CC(C=CC=C(C)C=CC1=C(C)C(=O)C(OC(=O)CNC(=O)NCCCC(=O)O)CC1(C)C)=CC=CC=C(C)C=CC=C(C)C=CC1=C(C)C(=O)C(OC(=O)CNC(=O)NCCCC(=O)O)CC1(C)C (stereo not drawn) [Example (8), 4-(3-{4-[18-(4-[3-(3-carboxylpropyl)ureidoacetoxy]-2,6,6-trimethyl-3-oxocyclohexa-1-enyl)-3,7,12,16-tetramethyloctadeca-1,3,5,7,9,11,13,15,17-nonaenyl]-3,5,5-trimethyl-2-oxocyclohexa-3-enyloxycarbonylmethyl}-ureido)butyric acid] |  |  |  |  |  |  | oral absorbability (in words) [4]: higher oral absorbability
CC(C=CC=C(C)C=CC1=C(C)C(=O)C(OC(=O)CNC(=O)NCCCC(=O)[O-])CC1(C)C)=CC=CC=C(C)C=CC=C(C)C=CC1=C(C)C(=O)C(OC(=O)CNC(=O)NCCCC(=O)[O-])CC1(C)C.[Na+].[Na+] (stereo not drawn) [Example (22), 4-(3-{4-[18-(4-[3-(3-carboxypropyl)ureidoacetoxy]-2,6,6-trimethyl-3-oxocyclohexa-1-enyl)-3,7,12,16-tetramethyloctadeca-1,3,5,7,9,11,13,15,17-nonaenyl]-3,5,5-trimethyl-2-oxocyclohexa-3-enyloxycarbonylmethyl}-ureido)butyric acid disodium salt] | 0.92 | 0.66 | 0.31 |  |  | suppressed IL-1β gene expression superiorly to astaxanthin | 
CC(C=CC=C(C)C=CC1=C(C)C(=O)C(OC(=O)CNC(=O)NCCCC(=O)O)CC1(C)C)=CC=CC=C(C)C=CC=C(C)C=CC1=C(C)C(=O)C(OC(=O)CNC(=O)NCCCC(=O)O)CC1(C)C.NCCCC[C@H](N)C(=O)O.NCCCC[C@H](N)C(=O)O (stereo not drawn) [Example (23), 4-(3-{4-[18-(4-[3-(3-carboxypropyl)ureidoacetoxy]-2,6,6-trimethyl-3-oxocyclohexa-1-enyl)-3,7,12,16-tetramethyloctadeca-1,3,5,7,9,11,13,15,17-nonaenyl]-3,5,5-trimethyl-2-oxocyclohexa-3-enyloxycarbonylmethyl}-ureido)butyric acid dilysine salt] | 0.88 |  |  | 81.8 ± 83.5 | 146.3 ± 98.0 | suppressed IL-1β gene expression superiorly to astaxanthin | suppression of generation of TNF-α (in words) (TNF-α; [5]): suppressed generation of TNF-α and of IL-1β more effectively; suppression of generation of IL-1β (in words) (IL-1β; [5]): suppressed generation of TNF-α and of IL-1β more effectively
